From publication PMC6841977, “Ruxolitinib binding to human serum albumin: bioinformatics, biochemical and functional characterization in JAK2V617F^+ cell models” (Scientific Reports, 2019)
Each block holds one compound with its values, some of them ahead of it.

Assays:
Format in all cases: binding
[1] = target: T1, human serum albumin (HSA) (Homo sapiens, UniProt P02768); assay: spectrofluorimetric titration (ex […] nm, em […] nm), pH […] °C
T1 construct: gene ALB; fatty acid-free human serum albumin
T1 sequence (P02768 25-609): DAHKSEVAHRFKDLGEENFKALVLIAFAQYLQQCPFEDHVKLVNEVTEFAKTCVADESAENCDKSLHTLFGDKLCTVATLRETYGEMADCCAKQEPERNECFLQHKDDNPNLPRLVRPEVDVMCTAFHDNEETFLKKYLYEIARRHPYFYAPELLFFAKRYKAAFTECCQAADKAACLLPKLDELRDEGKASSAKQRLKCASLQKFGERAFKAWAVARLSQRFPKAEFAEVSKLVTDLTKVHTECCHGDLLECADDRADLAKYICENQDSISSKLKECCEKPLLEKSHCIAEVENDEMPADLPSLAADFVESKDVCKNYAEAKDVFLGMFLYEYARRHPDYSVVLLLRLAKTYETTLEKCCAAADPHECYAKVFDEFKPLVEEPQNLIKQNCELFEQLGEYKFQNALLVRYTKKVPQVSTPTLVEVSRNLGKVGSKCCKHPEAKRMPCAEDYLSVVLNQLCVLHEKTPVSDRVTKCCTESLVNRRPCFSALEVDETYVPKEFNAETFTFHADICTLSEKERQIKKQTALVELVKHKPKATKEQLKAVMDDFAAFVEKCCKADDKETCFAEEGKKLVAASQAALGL

[2] = target: T1, human serum albumin (HSA); assay: as above; remark: listed apart in the source
[3] = target: T1, human serum albumin (HSA); assay: spectrophotometric titration ([…]-460 nm), pH […] °C
[4] = target: T1, human serum albumin (HSA); assay: competitive displacement of heme-Fe(III) (spectrophotometry) and dansyl-arginine (fluorescence), pH […] °C

Kd [1]: 27 ± 3 µM
Compound: CN(C)c1cccc2c(S(=O)(=O)N[C@@H](CCCNC(=N)N)C(=O)O)cccc12 [dansyl-arginine]

Compound: CN(C)c1cccc2c(S(=O)(=O)N(C)CC(=O)O)cccc12 [dansyl-sarcosine]
Kd [2]: 5.1 ± 0.5 µM

Compound: C=CC1=C(C)C2=Cc3c(C=C)c(C)c4[n]3[Fe+][n]3c(c(C)c(CCC(=O)O)c3=CC3=NC(=C4)C(C)=C3CCC(=O)O)=CC1=N2 [heme-Fe(III)]
Kd [3]: 76 ± 8 nM

Kd [4]: 3.1 ± 0.4 µM
Compound: N#CC[C@H](C1CCCC1)n1cc(-c2ncnc3[nH]ccc23)cn1 [ruxolitinib]
